Reference: patent US12071424B2, “IRE1 small molecule inhibitors” (Cornell University, priority 2017, dated 2024)

Legend:
IRE1a [1] = target: T1, IRE1a (Homo sapiens, UniProt O75460); experiment: In vitro FRET assay (IRE1a cleavage of XBP1 RNA probe); assay type: biochemical; conditions: 2 nM SignalChem IRE1a, tested as Formic Acid Salt (37: HCl Salt)
T1 construct: purchased SignalChem
Procedure, shortened: Human

293T cells = experiment: Growth assay (cytotoxicity); assay type: cell-based, human; conditions: Homo sapiens, HEK-293T, Formic Acid Salt (37: HCl Salt)
Method: A growth assay was performed to evaluate the compounds disclosed herein for cytotoxicity. Briefly, 5,000,000 293T cells were resuspended in 18 mL of cDMEM for a final concentration of […]. […] In a separate 96 well dilution plate, 199 uL cDMEM and 1 uL of DMSO or any one of the compounds disclosed herein (shown as Test Compound 1, 2, 3, 4, 5, or 6 below) were added to wells A4, A8, C4, C8, E4, E8, G4, and G8, 133.3 uL cDMEM was added to wells 1, 2, 3, 5, 6, and 7 in rows A, C, E and G of the dilution plate. Compounds were serially diluted leftwards in threefold dilutions (66.7 uL into 133.3 uL cDMEM). 20 uL of each dilution was transferred in duplicate (duplicates in vertical paired wells) to the cells plated in the 96-well plate shown in Table 5, to the total concentrations shown below. 200 uL cDMEM was addled to media wells (wells G5-H8). The plate was then placed in a humidified chamber for a […], and then photographed (media was more yellow in wells with potent cell growth). Absorbance was then measured at ˜[…] (lower for more acidic media) and ˜450 nM (higher for more acidic media).

IRE1a [2] = experiment: IRE1a Endoribonuclease Nanoluciferase Assay (XBP1 luciferase reporter in 293T cells); assay type: cell-based, human; conditions: Homo sapiens, HEK-293T, ER stressor, tested as Formic Acid Salt (37: HCl Salt)
Procedure, shortened: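 293T cells transiently transfected with a PGK-Luc2-P2A-XBP1u-Nanoluciferase-Pest reporter, replated after 6 h, then treated next day with ER stressors ± inhibitors. After lysis, firefly luminescence then nanoluciferase luminescence read sequentially (1000 ms integration each).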

T1 sequence (O75460 19-977): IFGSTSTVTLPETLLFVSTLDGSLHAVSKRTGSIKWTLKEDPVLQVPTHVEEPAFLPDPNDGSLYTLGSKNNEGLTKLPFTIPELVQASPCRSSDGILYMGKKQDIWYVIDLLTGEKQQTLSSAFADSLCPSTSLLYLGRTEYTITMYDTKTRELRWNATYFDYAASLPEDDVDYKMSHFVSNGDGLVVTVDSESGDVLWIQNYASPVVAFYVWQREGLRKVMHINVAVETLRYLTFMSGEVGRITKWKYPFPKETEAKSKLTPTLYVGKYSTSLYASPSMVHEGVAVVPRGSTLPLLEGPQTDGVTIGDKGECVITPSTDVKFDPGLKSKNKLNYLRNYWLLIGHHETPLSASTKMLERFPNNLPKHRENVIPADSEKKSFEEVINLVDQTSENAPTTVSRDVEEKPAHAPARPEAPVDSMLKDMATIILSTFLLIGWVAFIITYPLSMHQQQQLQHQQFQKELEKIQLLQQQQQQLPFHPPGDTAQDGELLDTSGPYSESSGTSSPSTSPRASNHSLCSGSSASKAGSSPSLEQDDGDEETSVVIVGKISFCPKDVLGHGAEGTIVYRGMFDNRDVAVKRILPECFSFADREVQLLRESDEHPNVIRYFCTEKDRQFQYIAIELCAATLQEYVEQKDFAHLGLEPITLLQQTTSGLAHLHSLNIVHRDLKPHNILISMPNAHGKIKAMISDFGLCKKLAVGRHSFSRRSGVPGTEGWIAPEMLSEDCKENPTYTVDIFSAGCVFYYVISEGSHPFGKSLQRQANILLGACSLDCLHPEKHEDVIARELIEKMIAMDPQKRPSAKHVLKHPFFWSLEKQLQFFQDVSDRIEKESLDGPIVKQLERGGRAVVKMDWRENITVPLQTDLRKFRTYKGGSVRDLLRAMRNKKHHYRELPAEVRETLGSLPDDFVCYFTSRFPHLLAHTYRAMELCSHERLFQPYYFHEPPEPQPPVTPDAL

| IC50 (IRE1a [1]) | EC50 (IRE1a [2]) | SMILES | viability at 0.185 µM (293T cells) | viability at 0.5556 µM (293T cells) | viability at 1.667 µM (293T cells) | viability at 5 µM (293T cells) |
| --- | --- | --- | --- | --- | --- | --- |
| ≤ 5 nM | ≤ 5 nM | CCc1cc(-c2cnc(NS(=O)(=O)c3ccccc3Cl)nc2C)cc2cnc(N[C@H]3CC[C@H](N)CC3)nc12 [Compound 23] | 75 to 100% | 50 to 75% | 50 to 75% | 75 to 100% |
| ≤ 5 nM | ≤ 5 nM | CCc1cc(-c2cnc(NS(=O)(=O)c3ccccc3Cl)cn2)cc2cnc(N[C@H]3CC[C@H](N)CC3)nc12 [Compound 25, N-(S-(2-(((1r,4r)-4-aminocyclohexyl)amino)-8-ethylquinazolin-6-yl)pyrazin-2-yl)-2-chlorobenzene-sulfonamide] | 75 to 100% | 75 to 100% | 75 to 100% | 75 to 100% |
| ≤ 5 nM | ≤ 5 nM | CCc1cc(-c2ccc(NS(=O)(=O)c3ccccc3Cl)nc2)cc2cnc(N[C@H]3CC[C@H](N)CC3)nc12 [Compound 27, N-(5-(2-(((1r,4)-4-aminocyclohexyl)amino)-8-ethylquinazolin-6-yl)pyridin-2-yl)-2-chlorobenzene-sulfonamide] | 75 to 100% | 75 to 100% | 50 to 75% | 25 to 50% |
| ≤ 5 nM | ≤ 5 nM | CCc1cc(-c2ccc(NS(=O)(=O)c3ccccc3Cl)cn2)cc2cnc(N[C@H]3CC[C@H](N)CC3)nc12 [Compound 28] | 75 to 100% | 75 to 100% | 50 to 75% | 25 to 50% |
| ≤ 5 nM | 100 to 10000 nM | CCc1cc(-c2cc(NS(=O)(=O)c3ccccc3Cl)n[nH]2)cc2cnc(N[C@H]3CC[C@H](N)CC3)nc12 [Compound 29, N-(5-(2-(((1r,4r)-4-aminocyclohexyl)amino)-8-ethylquinazolin-6-yl)-1H-pyrazol-3-yl)-2-chlorobenzene-sulfonamide] | 75 to 100% | 75 to 100% | 75 to 100% | 75 to 100% |
| ≤ 5 nM | 5 to 50 nM | CCc1cc(-c2nnc(NS(=O)(=O)c3ccccc3Cl)cc2OC)cc2cnc(N[C@H]3CC[C@H](N(C)C)CC3)nc12 [Compound 159, 2-chloro-N-(6-(2-(((1r,4r)-4-(dimethylamino)cyclohexyl)amino)-8-ethylquinazolin-6-yl)-5-methoxypyridazin-3-yl)benzenesulfonamide] | – | – | – | – |
| ≤ 5 nM | ≤ 5 nM | CCc1cc(-c2ccc(NS(=O)(=O)c3cccc(C)c3Cl)nc2C)cc2cnc(N[C@H]3CC[C@H](N(C)C)CC3)nc12 [Compound 160, 2-chloro-N-(5-(2-(((1r,4r)-4-(dimethylamino)cyclohexyl)amino)-8-ethylquinazolin-6-yl)-6-methylpyridin-2-yl)-3-methylbenzenesulfonamide] | – | – | – | – |
| ≤ 5 nM | ≤ 5 nM | CCc1c(F)c(-c2ccc(NS(=O)(=O)c3ccccc3Cl)nc2C)cc2cnc(N[C@H]3CC[C@H](N(C)C)CC3)nc12 [Compound 161, 2-chloro-N-(5-(2-(((1r,4r)-4-(dimethylamino)cyclohexyl)amino)-8-ethyl-7-fluoroquinazolin-6-yl)-6-methylpyridin-2-yl)benzenesulfonamide] | – | – | – | – |
| ≤ 5 nM | ≤ 5 nM | CCc1c(F)c(-c2cc(F)c(NS(=O)(=O)c3ccccc3Cl)nc2C)cc2cnc(N[C@H]3CC[C@H](N(C)C)CC3)nc12 [Compound 162, 2-chloro-N-(5-(2-(((1r,4r)-4-(dimethylamino)cyclohexyl)amino)-8-ethyl-7-fluoroquinazolin-6-yl)-3-fluoro-6-methylpyridin-2-yl)benzenesulfonamide] | – | – | – | – |
| ≤ 5 nM | ≤ 5 nM | CCc1c(F)c(-c2cc(F)c(NS(=O)(=O)c3ccccc3Cl)nc2OC)cc2cnc(N[C@H]3CC[C@H](N(C)C)CC3)nc12 [Compound 163, 2-chloro-N-(5-(2-(((1r,4r)-4-(dimethylamino)cyclohexyl)amino)-8-ethyl-7-fluoroquinazolin-6-yl)-3-fluoro-6-methoxypyridin-2-yl)benzenesulfonamide] | – | – | – | – |
